“Also recorded” adds a separate entry of the source.
Experiment: Multiple particle tracking of particles in CF sputum with mucolytic pretreatment
Format: in vitro ADME, human
Settings: for effect on overall ensemble averaged transport rates of nanoparticles: CF mucus, 30 mins post-treatment, 200 nm particles (rhDNase), 100 nm particles (0.4 mM NAC)
Experimental: Human respiratory sputum was expectorated from male and female CF patients (ages 18-35). CF sputum samples from multiple patients were pooled, freeze-dried, and reconstituted in sputum buffer by stirring at 4° C. to attain a large volume of homogeneous CF sputum. The volume of sputum buffer added to reconstituted CF sputum samples was determined by mass measurements (the reconstituted CF sputum had the equivalent mass of the fresh CF sputum samples).
[…] Mucus samples (200 μL) were centrifuged and a portion of the supernatant (40 μL) was replaced with mucolytic solution or PBS to maintain the initial concentration of mucus solids and eliminate any dilution effects. The displacements of particles in the no treatment (PBS) control were identical to that of particles embedded in an unprocessed mucus sample, which was not centrifuged. The tracking resolution, evaluated by tracking 500 nm polystyrene probes in glycerol, was […].
The mechanism of particle transport over short and long time scales was classified based on the concept of relative change (RC) of effective diffusivity (Deff). In brief, RC values of particles at short and long time scales were calculated by dividing the Deff of a particle at a probed time scale by the Deff at an earlier reference time scale. By calculating RC values for two time regimes (i.e., short and long time scales), one can obtain the transport mode that describes the particle transport properties over different length and temporal scales. RCshort was defined at τref=0.2 s and τprobe=1 s, whereas RClong was found at reference τref=1 s and τprobe=2s. An RC standard curve, which plots the 95% distribution range of Deff for purely Brownian particles over time scale, was generated based on Monte Carlo simulations and confirmed by tracking polystyrene nanoparticles in glycerol (data not shown). The transport modes of particles that display RC values below the […] range for either short or long time scales were classified as hindered, and the rest were classified as diffusive. Immobile particles are defined as those that display an average MSD smaller than the 10-nm resolution at a time scale of 1 s.

increase of transport rates (ensemble geometric mean square displacement) compared to no treatment control (PBS) (500 nm PEG-PS particles, pretreatment of CF mucus with neutralized NAC) | Molecule | enhancement of diffusive fraction of 500 nm PEG-PS compared to no treatment control (500 nm PEG-PS particles, CF mucus pretreated with NAC) | effect on overall ensemble averaged transport rates of nanoparticles (listed as NAC) | effect on overall ensemble averaged transport rates of nanoparticles
10.7 fold | CC(=O)N[C@@H](CS)C(=O)O [N-acetyl-L-cysteine] | 3 fold | significantly improved; also recorded: increased significantly | 
 | rhDNase: mucus degrading agent which hydrolyzes linear DNA, used clinically to increase mucus clearance (protein, UniProt P24855 23-282, looked up) Deoxyribonuclease-1: LKIAAFNIQTFGETKMSNATLVSYIVQILSRYDIALVQEVRDSHLTAVGKLLDNLNQDAPDTYHYVVSEPLGRNSYKERYLFVYRPDQVSAVDSYYYDDGCEPCGNDTFNREPAIVRFFSRFTEVREFAIVPLHAAPGDAVAEIDALYDVYLDVQEKWGLEDVMLMGDFNAGCSYVRPSQWSSIRLWTSPTFQWLIPDSADTTATPTHCAYDRIVVAGMLLRGAVVPDSALPFNFQAAYGLSDQLAQAISDHYPVEVMLK |  |  | reduced the overall ensemble averaged transport rates; also recorded: did not correlate to improved particle transport

Reference: patent publication US20100215580A1, “Compositions and methods for enhancing transport through mucus” (The Johns Hopkins University, priority 2006, published 2010)
